The values that follow come from patent publication US20250205206A1, “USE OF DEXPRAMIPEXOLE FOR THE TREATMENT OF INADEQUATELY CONTROLLED MODERATE TO SEVERE ASTHMA” (Areteia Therapeutics, Inc., priority 2023, published 2025).

Data set [1] deals with subjects with eosinophilic chronic rhinosinusitis with nasal polyps. Conditions: cited from earlier work; for total polyp score (TPS), mean value: baseline 5.29.
The test system of data set [2] is moderate to severe asthma. Briefly: Phase II dose finding study in moderate to severe asthma (EXHALE).
Data set [3] has as its system Chronic rhinosinusitis with nasal polyps. To be noted: in vivo; cited from earlier work.
Where [4] appears, read: 150 mg twice daily, 6 month trial.
The mark [5] stands for this setting: 150 mg twice daily, 12 subjects with a history of asthma.

Read-outs that look alike come from different tables or passages of the source.

In the case of `CCCN[C@@H]1CCc2nc(N)sc2C1` [dexpramipexole, (6R)-2-amino-4,5,6,7-tetrahydro-6-(propylamino)benzothiazole], in data set [1] (150 mg twice daily, 3 months), the “total polyp score (TPS), mean value” is recorded as 5.50. In data set [1] (setting [4]), the “SNOT-22 (rhinosinusitis symptoms)” value is “not improved”, the “Sniffin Sticks olfaction test” value was “not improved” and the “sinus CT score” value was “not improved”. The “total polyp score (TPS), mean value” in data set [1] (150 mg twice daily, 6 months) is given as 5.42. In data set [1] (setting [5]), the ACQ6 value entry is reported as “unchanged” and the FEV1 value entry was “unchanged”. The “lowering of the AEC (blood absolute eosinophil count)” value in data set [1] (dexpramipexole 150 mg twice daily, after 6 months, 16 subjects) was 94%. For the same molecule, the “safety and tolerability profile” value in data set [2] (Phase II, compared with placebo) is “tolerability profile of dexpramipexole in this Phase II study was similar to”. In addition, the “eosinophils in blood and airways” value in data set [2] (Phase II, moderate to severe asthma) is “significant, dose-dependent, and durable reductions”. Also, the “placebo-corrected change from baseline in pre-bronchodilator (pre-BD) FEV1” value in data set [2] (across the dose groups at various timepoints) is given as “clinically meaningful, placebo-corrected, change from baseline in pre-”.

B1: mepolizumab: eosinophil lowering drug; monoclonal antibody administered subcutaneously for asthma (antibody, chains of the INN, looked up, V domains shown)
VH: QVTLRESGPALVKPTQTLTLTCTVSGFSLTSYSVHWVRQPPGKGLEWLGVIWASGGTDYNSALMSRLSISKDTSRNQVVLTMTNMDPVDTATYYCARDPPSSLLRLDYWGRGTPVTVSS
VL: DIVMTQSPDSLAVSLGERATINCKSSQSLLNSGNQKNYLAWYQQKPGQPPKLLIYGASTRESGVPDRFSGSGSGTDFTLTISSLQAEDVAVYYCQNVHSFPFTFGGGTKLEIK
As to B1, in data set [3], the “efficacy in chronic rhinosinusitis with nasal polyps” value is listed as “have shown efficacy”.
